Results from US4760136A, “Chartreusin derivatives and salts thereof” (Ishihara Sangyo Kaisha, Ltd., priority 1984, dated 1988).
Counter-ions that a name gives are not always drawn. Like-named read-outs stand apart in the source and are kept apart here.

How the values were obtained:
[1] = test system: P-388 leukemia cells; assay: Antitumor activity: P-388 leukemia cells inoculated intraperitoneally, drug administered intravenously, BDF1 mice; assay type: in vivo; details: for response vs control in vivo at 20 mg/kg: dose b: 20 mg/kg × 3, i.v. on days 1, 5 and 9
Method: Into BDF1 mice were inoculated intraperitoneally P-388 leukemia cells at a rate of 1×10^6 cells/mouse, and each drug to be tested was administered intravenously on the first, fifth and ninth days after the inoculation. […] The drugs were as follows solutions prepared by adding physiological saline to each of compound Nos. 8, 9, 10, 11, 17, 34, 42, 59, 80 and 134; suspensions prepared by dispersing each of compound Nos. 41, 78, 98, 100, 130, 191, 212, 213, 215, 227 and 230 to 232 and a small amount of sodium carboxymethyl cellulose (Na.CMC) in physiological saline, […]

[2] = Acute toxicity, intravenous (once), ddY mice; assay type: in vivo; details: mouse, in vivo, formulated per Preparation Example
Text: In Table 7 are shown acute toxicity values (LD50, mg/kg) in ddY mice in the case of intravenously administering (once) each of the compounds of this invention in the form of preparations shown in the Preparation Examples shown in Table 7.

[3] = Mus musculus, P388, iv, dose c: 40 mg/kg × 3, i.v. on days 1, 5 and 9, BDF1 mice, P-388 i.p., read-out: T/C (%) of MST
[4] = Mus musculus, P388, iv, dose f: 80 mg/kg × 3, i.v. on days 1, 5 and 9, BDF1 mice, P-388 i.p., read-out: T/C (%) of MST
[5] = Mus musculus, P388, iv, BDF1 mice, P-388 i.p., read-out: T/C (%) of MST
[6] = Mus musculus, P388, iv, read-out: T/C (%) of MST

Row | SMILES | response vs control in vivo at 40 mg/kg [1, 3] [%] | response vs control in vivo at 80 mg/kg [1, 4] [%] | LD50 ([2]; iv) [mg/kg] | further results
1 | COC1C(O)C(C)OC(OC2C(Oc3cccc4c(OC(=O)CCCCCN)c5c(=O)oc6ccc(C)c7c(=O)oc(c34)c5c67)OC(C)C3OC(C)(C)OC32)C1O (stereo not shown) [compound 59] | 146 | 218 | ≥ 100 | 
2 | COC1C(O)C(C)OC(OC2C(Oc3cccc4c(OC(=O)CCNC=O)c5c(=O)oc6ccc(C)c7c(=O)oc(c34)c5c67)OC(C)C3OC(CCc4ccccc4)OC32)C1O (stereo not shown) [compound 83] | 144 | 208 | ≥ 80 | 
3 | COC1C(O)C(C)OC(OC2C(Oc3cccc4c(OC(=O)CCCCCNC(=O)C(F)(F)F)c5c(=O)oc6ccc(C)c7c(=O)oc(c34)c5c67)OC(C)C3OC(c4ccccc4)OC32)C1O (stereo not shown) [compound 78, 6-O-(N-trifluoroacetyl-6-amino-n-hexanoyl)-3',4'-O-benzylidene-chartreusin] | 146 | 176 | ≥ 100 | 
4 | C=CCCC(=O)Oc1c2cccc(O[C@@H]3O[C@H](C)[C@@H]4OC(c5ccccc5)O[C@@H]4[C@H]3O[C@H]3O[C@H](C)[C@H](O)[C@H](OC)[C@H]3O)c2c2oc(=O)c3c(C)ccc4oc(=O)c1c2c43 (stereo partly shown) [compound 192] |  |  | ≥ 40 | response vs control in vivo at 10 mg/kg ([1]; Mus musculus, P388, iv, dose a: 10 mg/kg × 3, i.v. on days 1, 5 and 9, BDF1 mice, P-388 i.p., read-out: T/C (%) of MST): 153%; response vs control in vivo at 20 mg/kg [1, 5]: 199%
5 | CO[C@H]1[C@@H](O)[C@@H](C)O[C@H](O[C@H]2[C@H](Oc3cccc4c(OC(=O)c5ccc(Cl)cc5Cl)c5c(=O)oc6ccc(C)c7c(=O)oc(c34)c5c67)O[C@H](C)[C@@H]3OC(C)(C)O[C@@H]32)[C@@H]1O [Compound No. 180] | 145 | 208 | ≥ 80 | 
6 | COC1C(O)C(C)OC(OC2C(Oc3cccc4c(OC(=O)COc5ccc(F)cc5)c5c(=O)oc6ccc(C)c7c(=O)oc(c34)c5c67)OC(C)C3OC(C)(C)OC32)C1O (stereo not shown) [compound 225] |  |  | ≥ 60 | response vs control in vivo at 60 mg/kg ([1]; Mus musculus, P388, iv, dose e: 60 mg/kg × 3, i.v. on days 1, 5 and 9, BDF1 mice, P-388 i.p., read-out: T/C (%) of MST): 148%
7 | COC1C(O)C(C)OC(OC2C(Oc3cccc4c(OC(=O)CCC(=O)c5ccccc5)c5c(=O)oc6ccc(C)c7c(=O)oc(c34)c5c67)OC(C)C3OC(C)(C)OC32)C1O (stereo not shown) [compound 224, 6-O-(3-benzoylpropionyl)-3',4'-O-isopropylidene-chartreusin] |  |  | ≥ 60 | response vs control in vivo at 50 mg/kg ([1]; Mus musculus, P388, iv, dose d: 50 mg/kg × 3, i.v. on days 1, 5 and 9, BDF1 mice, P-388 i.p., read-out: T/C (%) of MST): 148%
8 | COC1C(O)C(C)OC(OC2C(Oc3cccc4c(OC(=O)CCNC=O)c5c(=O)oc6ccc(C)c7c(=O)oc(c34)c5c67)OC(C)C3OC(c4cccc(C(F)(F)F)c4)OC32)C1O (stereo not shown) [Compound No. 52] | 162 | 203 | ≥ 80 | 
9 | COC1C(O)C(C)OC(OC2C(Oc3cccc4c(OC(=O)CC(C)NC(=O)C(F)(F)F)c5c(=O)oc6ccc(C)c7c(=O)oc(c34)c5c67)OC(C)C3OC(C)(C)OC32)C1O (stereo not shown) [Compound No. 51] | 136 | 207 | ≥ 100 | 
10 | COC1C(O)C(C)OC(OC2C(Oc3cccc4c(OC(=O)CNC(=O)OCc5ccccc5)c5c(=O)oc6ccc(C)c7c(=O)oc(c34)c5c67)OC(C)C3OC(c4ccccc4)OC32)C1O (stereo not shown) [compound 71] |  |  | ≥ 40 | response vs control in vivo at 20 mg/kg [1, 5]: 157%
11 | CO[C@H]1[C@@H](O)[C@@H](C)O[C@H](O[C@H]2[C@H](Oc3cccc4c(OC(=O)CCCl)c5c(=O)oc6ccc(C)c7c(=O)oc(c34)c5c67)O[C@H](C)[C@@H]3OC(c4ccccc4F)O[C@@H]32)[C@@H]1O (stereo partly shown) [compound 210] | 186 |  | ≥ 60 | 
12 | COC1C(O)C(C)OC(OC2C(Oc3cccc4c(OC(=O)C(C)CNC(C)C)c5c(=O)oc6ccc(C)c7c(=O)oc(c34)c5c67)OC(C)C3OC(c4ccccc4)OC32)C1O (stereo not drawn) [Compound No. 2, 6-O-(N-Isopropyl-β-Amino-Isobutyryl)-3',4'-O-Benzylidene-Chartreusin Hydrochloride] | 216 |  | ≥ 40 | response vs control in vivo at 20 mg/kg [1, 5]: 184%
13 | COC1C(O)C(C)OC(OC2C(Oc3cccc4c(OC(=O)CCCCCCCCCCCNC(C)=O)c5c(=O)oc6ccc(C)c7c(=O)oc(c34)c5c67)OC(C)C3OC(C)(C)OC32)C1O (stereo not shown) [compound 129] |  |  | ≥ 180 | response vs control in vivo at 160 mg/kg ([1]; Mus musculus, P388, iv, dose i: 160 mg/kg × 3, i.v. on days 1, 5 and 9, BDF1 mice, P-388 i.p., read-out: T/C (%) of MST): 167%
14 | CO[C@H]1[C@@H](O)[C@@H](C)O[C@H](O[C@H]2[C@H](Oc3cccc4c(OC(=O)CCCCl)c5c(=O)oc6ccc(C)c7c(=O)oc(c34)c5c67)O[C@H](C)[C@@H]3OC(c4ccccc4)O[C@@H]32)[C@@H]1O (stereo partly shown) [compound 214] | 130 | 198 | ≥ 80 | 
15 | COC1C(O)C(C)OC(OC2C(Oc3cccc4c(OC(=O)CC(C)C)c5c(=O)oc6ccc(C)c7c(=O)oc(c34)c5c67)OC(C)C3OC(c4cccc(Br)c4)OC32)C1O (stereo not shown) [Compound No. 163] | 156 | 227 | ≥ 80 | 
16 | COC1C(O)C(C)OC(OC2C(Oc3cccc4c(OC(=O)C(NC(=O)OCc5ccccc5)C(C)C)c5c(=O)oc6ccc(C)c7c(=O)oc(c34)c5c67)OC(C)C3OC(c4ccccc4)OC32)C1O (stereo not shown) [compound 106] |  |  | ≥ 40 | response vs control in vivo at 20 mg/kg [1, 5]: 173%
17 | COC1C(O)C(C)OC(OC2C(Oc3cccc4c(OC(=O)CCSC)c5c(=O)oc6ccc(C)c7c(=O)oc(c34)c5c67)OC(C)C3OC(c4ccccc4)OC32)C1O (stereo not shown) [Compound No. 152] | 210 |  | ≥ 40 | response vs control in vivo at 20 mg/kg [1, 5]: 157%
18 | COC1C(O)C(C)OC(OC2C(Oc3cccc4c(OC(=O)C(Br)C(C)C)c5c(=O)oc6ccc(C)c7c(=O)oc(c34)c5c67)OC(C)C3OC(C)(C)OC32)C1O (stereo not shown) [Compound No. 172] | 148 | 195 | ≥ 80 | 
19 | COC1C(O)C(C)OC(OC2C(Oc3cccc4c(OC(=O)CN(C)C(=O)C(F)(F)F)c5c(=O)oc6ccc(C)c7c(=O)oc(c34)c5c67)OC(C)C3OC(c4ccccc4F)OC32)C1O (stereo not shown) [compound 82] | 148 | 205 | ≥ 80 | 
20 | COC1C(O)C(C)OC(OC2C(Oc3cccc4c(OC(=O)CCCCCCCNC(=O)C(F)(F)F)c5c(=O)oc6ccc(C)c7c(=O)oc(c34)c5c67)OC(C)C3OC(c4ccccc4)OC32)C1O (stereo not shown) [compound 77] | 186 |  | ≥ 40 | response vs control in vivo at 20 mg/kg [1, 5]: 135%
21 | COC1C(O)C(C)OC(OC2C(Oc3cccc4c(OC(=O)CCC(C)=O)c5c(=O)oc6ccc(C)c7c(=O)oc(c34)c5c67)OC(C)C3OC(C)(C)OC32)C1O (stereo not shown) [Compound No. 156] | 160 | 218 | ≥ 80 | 
22 | COC1C(O)C(C)OC(OC2C(Oc3cccc4c(OC(=O)CCCNC(=O)C(F)(F)F)c5c(=O)oc6ccc(C)c7c(=O)oc(c34)c5c67)OC(C)C3OC(c4ccc(F)cc4)OC32)C1O (stereo not shown) [compound 91] |  |  | ≥ 40 | T/C (%) of MST ([1]; dose c: 40 mg/kg × 3, i.v. on days 1, 5 and 9, BDF1 mice, P-388 i.p.): 173%
23 | COC1C(O)C(C)OC(OC2C(Oc3cccc4c(OC(=O)C5CCCCC5NC(=O)OCc5ccccc5)c5c(=O)oc6ccc(C)c7c(=O)oc(c34)c5c67)OC(C)C3OC(c4ccccc4)OC32)C1O (stereo not shown) [Compound No. 62] | 210 |  | ≥ 40 | response vs control in vivo at 20 mg/kg [1, 5]: 155%
24 | CO[C@H]1[C@@H](O)[C@@H](C)O[C@H](O[C@H]2[C@H](Oc3cccc4c(OC(=O)c5ccc(Br)cc5)c5c(=O)oc6ccc(C)c7c(=O)oc(c34)c5c67)O[C@H](C)[C@@H]3OC(C)(C)O[C@@H]32)[C@@H]1O [Compound No. 179] | 136 | 208 | ≥ 80 | 
25 | COC1C(O)C(C)OC(OC2C(Oc3cccc4c(OC(=O)C(C)CNC(=O)CN)c5c(=O)oc6ccc(C)c7c(=O)oc(c34)c5c67)OC(C)C3OC(c4ccccc4)OC32)C1O (stereo not shown) [Compound No. 3] | 192 |  | ≥ 40 | response vs control in vivo at 20 mg/kg [1, 5]: 150%
26 | CCCC(=O)Oc1c2cccc(O[C@@H]3O[C@H](C)[C@@H]4OC(c5ccccc5OC)O[C@@H]4[C@H]3O[C@H]3O[C@H](C)[C@H](O)[C@H](OC)[C@H]3O)c2c2oc(=O)c3c(C)ccc4oc(=O)c1c2c43 (stereo partly shown) [compound 216] |  |  |  | response vs control in vivo at 40 mg/kg [1, 6]: 171%; LD50 [2]: ≥ 40 mg/kg
27 | C/C=C(\C)C(=O)Oc1c2cccc(O[C@@H]3O[C@H](C)[C@@H]4OC(c5ccccc5)O[C@@H]4[C@H]3O[C@H]3O[C@H](C)[C@H](O)[C@H](OC)[C@H]3O)c2c2oc(=O)c3c(C)ccc4oc(=O)c1c2c43 (stereo partly shown) [compound 215] |  |  |  | response vs control in vivo at 40 mg/kg [1, 6]: 131%; response vs control in vivo at 80 mg/kg [1, 6]: 158%; LD50 [2]: ≥ 80 mg/kg
